Source: patent publication US12648559B2, “Topical mosquito control product with sunscreen” (Pouch Pac Innovations, LLC, priority 2016, dated 2026)

System: Aedes aegypti mosquitoes
Assay: Arm-in-cage testing of protective efficacy
Format: in vivo
Experimental: Additional testing was performed with the lotion of example 3 including sunflower oil, isopropyl alcohol, peppermint oil, citronella oil, zinc oxide, water and turmeric oil with the following protocols. Aedes aegypti mosquitoes were obtained from insecticide-susceptible reference strains held at the London School of Hygiene & Tropical Medicine, UK. All mosquitoes are reared and housed under optimal environmental conditions of 25° C.±2° C. and 80% Relative Humidity with a 12:12 hour photoperiod. Testing was carried out in a testing room maintained at […] with a 12:12 hour photoperiod. For each product, the same person carried out the arm-in-cage testing.
For each product test, three batches of 50 female mosquitoes were placed in cages inside the testing room. Before the start of each test a bare arm with gloved hand was inserted into the cage for 30 seconds to assess the biting readiness of the mosquitoes. […] The number of mosquitoes probing the untreated arm was counted at the end of the 30 second test.
Following the combined fitness/control test, the product was applied onto the right arm at the WHO standard rate of 1 ml per 600 cm 2 […] for DEET, and at a rate of 2 mg per cm′ for the Sunscreen Repellent. The arm was then inserted into the cage for 30 seconds and the number of mosquitoes probing on the arm counted and recorded. […]

For `CCN(CC)C(=O)c1cccc(C)c1` [8% DEET], the “50% protective efficacy time” value (time after application with 50% protection) was 6 h and the “complete (100%) protective efficacy time” value (time after application with 100% protection) was 1 h.
